According to article PMC6278923 (Insect biochemistry and molecular biology, 2018):

Biological target: T1, RproOR1•RproOrco (Rhodnius prolixus, UniProt T1H977)
T1 sequence (T1H977 1-409): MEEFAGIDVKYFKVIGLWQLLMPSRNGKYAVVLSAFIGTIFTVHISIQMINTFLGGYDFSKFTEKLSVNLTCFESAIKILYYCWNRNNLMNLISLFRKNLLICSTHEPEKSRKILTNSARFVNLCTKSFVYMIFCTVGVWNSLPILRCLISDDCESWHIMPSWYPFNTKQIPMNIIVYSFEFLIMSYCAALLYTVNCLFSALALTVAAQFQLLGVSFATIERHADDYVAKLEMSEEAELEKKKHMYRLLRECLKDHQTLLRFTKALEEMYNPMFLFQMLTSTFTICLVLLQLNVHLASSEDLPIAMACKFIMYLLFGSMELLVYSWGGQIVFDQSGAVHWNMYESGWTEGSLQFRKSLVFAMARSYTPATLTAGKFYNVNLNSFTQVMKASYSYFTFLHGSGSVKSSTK
Experiment: two-electrode voltage clamp, Xenopus oocytes
Type: cell-based
Conditions: agonist; -70 mV; coexpressed with RproOrco

SMILES	two-electrode voltage clamp, Xenopus oocytes
CCCCC=O [pentanal]	moderate responses to 3-methyl-1-butanol, methyl butyrate, (Z)-3-hexenyl acetate, pentanal
CC/C=C\CCOC(C)=O [(Z)-3-hexenyl acetate]	moderate responses to 3-methyl-1-butanol, methyl butyrate, (Z)-3-hexenyl acetate
